Measurements reported in US20020122768A1, “Stable radiopharmaceutical compositions and methods for preparation thereof” (priority 2000, published 2002).
Marks after values point to notes of the source that are not given here.

How the values were obtained:
Assay type in all cases: physicochemical
[1] = Solution stability of ^90Y-A at −78° C., RCP by radio-HPLC; conditions: for RCP (%) change: t = 0 h to 72 h
Experimental: (§1) The integrity of a radiopharmaceutical is measured by the radiochemical purity (RCP) of the radiolabeled compound using ITLC or more preferably HPLC. The advantage of using HPLC is that radio-impurities caused by radiolytic degradation can be separated from the radiopharmaceutical under optimized chromatographic conditions. […] The radiopharmaceutical compositions of this invention are effective in maintaining the long-term stability of samples that have been frozen, thawed, and re-tested periodically for 7 days.
(§2) The initial RCP of a radiopharmaceutical is largely dependent on radiolabeling conditions such as pH, heating temperature and time. Once a radiopharmaceutical is prepared in high yield, the stability of the radiopharmaceutical composition is measured by the` RCP change of the radiopharmaceutical over a certain period of time. For comparison purposes, sodium gentisate or sodium ascorbate was often used as the reference since they have been used in various radiopharmaceutical formulations.
Analytical Methods. HPLC method 1 used a HP-1100 HPLC system with a UV/visible detector (λ=220 nm), an IN-US radio-detector, and a Zorbax C18 column (4.6 mm×250 mm, 80 Å pore size). The flow rate was 1 mL/min with the mobile phase being isocratic from 0 to 18 min using 87% solvent A (0.025 M ammonium acetate buffer, pH 6.8) and 13% solvent B (acetonitrile), followed by an isocratic wash using 40% of solvent A and 60% solvent B from 19 to 25 min.
The ITLC method used Gelman Sciences silica-gel ITLC paper strips and 1:1 mixture of acetone and saline as eluant. By this method, the radiolabeled compounds migrate to the solvent front while [^90Y]/^177Lu]colloid and [^90Y]/^177Lu]acetate remain at the origin.
^90Y-A was prepared using the procedure described in example 4. The resulting solution was the kept in a dry-ice box (−78° C.) for 3 days. Samples were analyzed at t=0, 24, 48, and 72 h.
To a lead-shielded clean 5 mL vial containing 100 μg of COMPOUND A and 2 mg of 3,4,5-trihydroxybenzoic acid (3,4,5-THBA) dissolved in 0.5 mL of 0.5 M ammonium acetate buffer (pH=8.0) was added 20 μL Of ^90YCl3 solution (˜20 mCi) in 0.05 N HCl. The reaction mixture was heated at 100° C. for 5 min. After cooling to room temperature, 0.5 mL of 3,4,5-THBA solution (20 mg/mL) in 0.5 M ammonium acetate buffer (pH=8.0) was added to the solution above. A sample of the resulting mixture was then diluted 20-fold with GA solution (10 mg/mL, pH=7.4), and analyzed by HPLC (Method 1, injection volume=1 μL) and ITLC. […] The resulting mixture was kept at −78° C. for 3 days. Samples were analyzed at t=0, 1, 2, and 3 days.
(§3) Synthesis of ^90Y-A was carried out according to the procedure described in example 12. After cooling to room temperature, 0.5 mL of 2,3,4-THBA solution (20 mg/mL) in 0.5 M ammonium acetate buffer (pH=8.0) was added to the solution containing ^90Y-A. The resulting mixture was kept at -78 °C for 3 days. Samples were analyzed at t=0, 1, 2, and 3 days.
as §3, with “DSA” for “2,3,4-THBA”, “−78° C.” for “-78 °C”
as §3, with “mL of HABA solution (20” for “mL of 2,3,4-THBA solution (20”, “kept at −78° C. for 3” for “kept at -78 °C for 3”, “3 days. […]” for “3 days.”
To a lead-shielded clean 30 mL vial containing 1000 μg of COMPOUND A and 100 mg of sodium gentisate (GA) dissolved in 5 mL of 0.5 M ammonium acetate buffer (pH=7.5) was added ˜250 μL of ^90YCl3 solution (˜200 mCi) in 0.05 N HCl. The reaction mixture was heated at 100° C. for 15 min. […]

[2] = Solution stability of ^90Y-B at −78° C., RCP by radio-HPLC; conditions: ^90Y-B prepared with GA
Experimental: as §1, §2
HPLC method 2 used a HP-1100 HPLC system with a UV/visible detector (λ=220 nm), an IN-US radio-detector, and a Zorbax C18 column (4.6 mm×250 mm, 80 Å pore size). The flow rate was 1 mL/min with a gradient mobile phase starting from 92% solvent A (0.025 M ammonium acetate buffer, pH 6.8) and 8% solvent B (acetonitrile) at 0 min to 90% solvent A and 10% solvent B at 18 min, followed by an isocratic wash using 40% of solvent A and 60% solvent B from 19 to 25 min.
The ITLC method used Gelman Sciences silica-gel ITLC paper strips and 1:1 mixture of acetone and saline as eluant. By this method, the radiolabeled compounds migrate to the solvent front while [^90Y]/^177Lu]colloid and [^90Y]/^177Lu]acetate remain at the origin. […]
The 0.5 M ammonium acetate buffer (pH 8.0) was first degassed under vacuum for 1-2 min. COMPOUND B and gentisic acid (sodium salt, GA) were dissolved in the degassed buffer to give a concentration of 100 μg/mL for COMPOUND B and 20 mg/mL for GA. The resulting solution was immediately degassed under vacuum for another 1-2 min. To a clean sealed 5 mL vial was added 1.0 mL of the degassed 0.5 M ammonium acetate buffer (pH 8.0) containing 100 μg COMPOUND B and 10 mg GA. The solution was degassed again under vacuum. Upon addition of ˜20 μL of ^90YCl3 solution (˜20 mCi) in 0.05 N HCl, the reaction mixture was heated at 100° C. for 5 min. After cooling to room temperature, a sample of the resulting solution was diluted 20-fold with saline containing gentisate (10 mg/mL), and was then analyzed by HPLC (Method 2, injection volume=1-2 μL) and ITLC. […] To the solution above was added 0.5 mL of sodium ascorbate solution (40 mg/mL in 0.5 M ammonium acetate buffer, pH=7.4). The resulting mixture was then kept in a dry-ice box (−78° C.) for 7 days. Samples were analyzed at t=0, 3 and 7 days.
The 0.5 M ammonium acetate buffer (pH 8.0) was first degassed under vacuum for 1-2 min. COMPOUND B and gentisic acid (sodium salt, GA) were dissolved in the degassed buffer to give a concentration of 100 μg/mL for COMPOUND B and 20 mg/mL for GA. The resulting solution was immediately degassed under vacuum for another 1-2 min. To a clean sealed 5 mL vial was added 1.0 mL of the degassed 0.5 M ammonium acetate buffer (pH 8.0) containing 100 μg COMPOUND B and 10 mg GA. The solution was degassed again under vacuum. Upon addition of ˜20 μL of ^90YCl3 solution (˜20 mCi) in 0.05 N HCl, the reaction mixture was heated at 100° C. for 5 min. After cooling to room temperature, a sample of the resulting solution was diluted 20-fold with saline containing gentisate (10 mg/mL), and was then analyzed by HPLC (Method 2, injection volume=1-2 μL) and ITLC. […] To the solution above was added 0.5 mL of 2,3,4-trihydroxybenzoic acid solution (20 mg/mL in 0.5 M ammonium acetate buffer, pH=6.5). The resulting mixture was then kept in a dry-ice box (−78° C.) for 7 days. Samples were analyzed at t=0, 3 and 7 days. […]

[3] = Solution stability of ^90Y-A at room temperature, RCP by radio-HPLC; conditions: room temperature; for RCP (%) t = 0 h / RCP (%) t = 24 h / RCP (%) t = 48 h / RCP (%) t = 120 h / RCP (%) t = 144 h / RCP (%) t = 72 h / RCP (%) t = 148 h: ^90Y-A (~20 mCi); for RCP (%) change: ^90Y-A, t = 0 h to last time point
Experimental: The advantage of using HPLC is that radio-impurities caused by radiolytic degradation can be separated from the radiopharmaceutical under optimized chromatographic conditions.
The initial RCP of a radiopharmaceutical is largely dependent on radiolabeling conditions such as pH, heating temperature and time. Once a radiopharmaceutical is prepared in high yield, the stability of the radiopharmaceutical composition is measured by the` RCP change of the radiopharmaceutical over a certain period of time.
Analytical Methods. HPLC method 1 used a HP-1100 HPLC system with a UV/visible detector (λ=220 nm), an IN-US radio-detector, and a Zorbax C18 column (4.6 mm×250 mm, 80 Å pore size).
The ITLC method used Gelman Sciences silica-gel ITLC paper strips and 1:1 mixture of acetone and saline as eluant.
(§4) The reaction mixture was heated at 100° C. for 10 min. A sample of the resulting solution was first diluted 20-fold with 2 mM DTPA solution (pH=5), and was then analyzed by HPLC (Method 1, injection volume=1-2 μL) and ITLC. […] The resulting solution was kept at room temperature for 6 days.
as §4, §4
The reaction mixture was heated at 100° C. for 10 min. A sample of the resulting solution was first diluted 20-fold with 2 mM DTPA solution (pH=5), and was then analyzed by HPLC (Method 1, injection volume 1-2 μL) and ITLC. […] The resulting solution was kept at room temperature for 7 days.
(§5) The reaction mixture was heated at 100° C. for 10 min. A sample of the resulting solution was first diluted 20-fold with 2 mM DTPA solution (pH=5), and was then analyzed by HPLC (Method 1, injection volume=1-2 μL) and ITLC. […] The resulting solution was kept at room temperature for 7 days.
as §5, §5

[4] = ^90Y-A prepared using 2 mg 3,4,5-THBA, second stabilizer (0.5 mL of 20 mg/mL) added after radiolabeling, −78° C.
[5] = degassed, second stabilizer (20 mg AA, 20 mg DSA, 10 mg 2,3,4-THBA, 10 mg HABA) added post-labeling
[6] = ^90Y-A, 10 mg stabilizer, dry-ice box (−78° C.)
[7] = ^90Y-A, 10 mg stabilizer, −78° C.

Compound | RCP (%) t = 0 h [1, 6] [%] | RCP (%) t = 24 h [1, 6] [%] | RCP (%) t = 48 h [1, 6] [%] | RCP (%) t = 72 h [1, 6] [%] | RCP (%) change [1, 7] [%] | RCP (%) t = 0 h ([3]; 2 mg stabilizer) [%] | RCP (%) t = 24 h ([3]; 2 mg stabilizer) [%] | RCP (%) t = 48 h ([3]; 2 mg stabilizer) [%] | RCP (%) t = 120 h ([3]; 2 mg stabilizer) [%] | RCP (%) t = 144 h ([3]; 2 mg stabilizer) [%] | RCP (%) t = 0 h ([3]; 10 mg stabilizer) | RCP (%) t = 24 h ([3]; 10 mg stabilizer) [%] | RCP (%) t = 72 h ([3]; 10 mg stabilizer) [%] | RCP (%) t = 148 h ([3]; 10 mg stabilizer) [%] | RCP (%) change ([3]; 10 mg stabilizer) [%] | further results
Nc1ccc(C(=O)O)cc1O [HABA, 3-hydroxy-4-aminobenzoic acid] | – | – | – | – | – | – | – | – | – | – | – | – | – | – | – | RCP (%) t = 0 h [1, 4]: 98.5%; RCP (%) t = 24 h [1, 4]: 98.3%; RCP (%) t = 48 h [1, 4]: 98.7%; RCP (%) t = 72 h [1, 4]: 98.1%; RCP (%) change ([1]; ^90Y-A prepared using 2 mg 3,4,5-THBA, second stabilizer added after radiolabeling, −78° C.): 0.4%; RCP (%) t = 0 [2, 5]: 94.8%; RCP (%) t = 3 days [2, 5]: 94.5%; RCP (%) t = 7 days [2, 5]: 94.0%; RCP (%) change ([2]; second stabilizer added post-labeling, t = 0 to 7 days): 0.8%
O=Cc1cc(O)c(O)c(O)c1 [3,4,5-THBAD, 3,4,5-trihydroxybenzaldehyde] | 88.2 | 86.4 | 87.3 | 87.4 | 0.8 | 95.5 | 92.8 | 87.4 | 84.9 | 80.7 | 88.1* % | 82.3 | 77.3 | 68.4 | 19.7 | –
O=C([O-])c1cc(O)ccc1O.[Na+] [GA, sodium gentisate, reference compound] | 96.4 | 96.7 | 95.4 | 94.6 | 1.8 | 94.6 | 84.5 | 80.7 | 71.2 | 69.7 | 96.3% | 92.6 | 83.8 | 77.3 | 19 | –
